A word on the pKi: it is −log10 of the Ki, conventionally taken in molar units.

The target in the assay is human cloned 5-HT6 receptors (Homo sapiens, UniProt P50406).

pKi: −log10 of the molar value. Where a name gives a salt, the structure may show the parent alone.

human cloned 5-HT6 receptors, sequence (P50406 whole entry): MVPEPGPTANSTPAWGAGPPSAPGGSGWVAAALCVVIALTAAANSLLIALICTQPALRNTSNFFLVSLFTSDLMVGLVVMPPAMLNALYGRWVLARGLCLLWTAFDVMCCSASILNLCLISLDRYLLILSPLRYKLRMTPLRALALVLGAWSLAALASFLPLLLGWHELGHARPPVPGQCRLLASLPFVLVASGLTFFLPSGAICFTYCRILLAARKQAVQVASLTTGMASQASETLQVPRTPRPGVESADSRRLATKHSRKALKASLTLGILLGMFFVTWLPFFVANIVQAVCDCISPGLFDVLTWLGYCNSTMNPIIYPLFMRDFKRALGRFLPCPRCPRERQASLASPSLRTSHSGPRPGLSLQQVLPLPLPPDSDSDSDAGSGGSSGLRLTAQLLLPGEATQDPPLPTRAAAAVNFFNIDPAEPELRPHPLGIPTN

In turn, `CN1CCN(c2ccc3[nH]nc(S(=O)(=O)c4ccccc4)c3n2)CC1` [Example 4, 5-(4-methylpiperazin-1-yl)-3-(phenylsulfonyl)-1H-pyrazolo-[4,3-b]pyridine hydrochloride] showed a pKi of 7.47. As for `O=S(=O)(c1ccccc1)c1c[nH]c2ccc(N3CCN(Cc4ccccc4)CC3)nc12` [Example 8, 5-(4-Benzylpiperazin-1-yl)-3-(phenylsulfonyl)-1H-pyrrolo[3,2-b]pyridine], the figure is 7.52. As for `O=S(=O)(c1ccccc1)c1c[nH]c2ccc(N3CCNCC3)nc12` [Example 9, 3-(Phenylsulfonyl)-5-piperazin-1-yl-1H-pyrrolo[3,2-b]pyridine Dihydrochloride], the figure is 8.70.

The record behind these values is patent publication US7576087B2, “Heterocyclyl-3-sulfonylazaindole or -azaindazole derivatives as 5-hydroxytryptamine-6 ligands” (Wyeth, priority 2003, dated 2009).
